Test results from patent US20220259193A1, “KCNT1 INHIBITORS AND METHODS OF USE” (Praxis Precision Medicines, Inc., priority 2019, published 2022).

molecular target: T1, KCNT1 (KNa1.1, Slack) (Homo sapiens, UniProt Q5JUK3); assay: KCNT1 patch clamp assay (SyncroPatch 384PE automated patch clamp); type: cell-based; conditions: tetracycline inducible HEK-TREX cell line; perforated patch; step from −80 mV to 0 mV; room temperature; read-out: KCNT1-WT IC50
T1 construct: expressed in transfected cells; host or cells: HEK-TREX (tetracycline-inducible HEK cell line)
T1 sequence (Q5JUK3 1-1230): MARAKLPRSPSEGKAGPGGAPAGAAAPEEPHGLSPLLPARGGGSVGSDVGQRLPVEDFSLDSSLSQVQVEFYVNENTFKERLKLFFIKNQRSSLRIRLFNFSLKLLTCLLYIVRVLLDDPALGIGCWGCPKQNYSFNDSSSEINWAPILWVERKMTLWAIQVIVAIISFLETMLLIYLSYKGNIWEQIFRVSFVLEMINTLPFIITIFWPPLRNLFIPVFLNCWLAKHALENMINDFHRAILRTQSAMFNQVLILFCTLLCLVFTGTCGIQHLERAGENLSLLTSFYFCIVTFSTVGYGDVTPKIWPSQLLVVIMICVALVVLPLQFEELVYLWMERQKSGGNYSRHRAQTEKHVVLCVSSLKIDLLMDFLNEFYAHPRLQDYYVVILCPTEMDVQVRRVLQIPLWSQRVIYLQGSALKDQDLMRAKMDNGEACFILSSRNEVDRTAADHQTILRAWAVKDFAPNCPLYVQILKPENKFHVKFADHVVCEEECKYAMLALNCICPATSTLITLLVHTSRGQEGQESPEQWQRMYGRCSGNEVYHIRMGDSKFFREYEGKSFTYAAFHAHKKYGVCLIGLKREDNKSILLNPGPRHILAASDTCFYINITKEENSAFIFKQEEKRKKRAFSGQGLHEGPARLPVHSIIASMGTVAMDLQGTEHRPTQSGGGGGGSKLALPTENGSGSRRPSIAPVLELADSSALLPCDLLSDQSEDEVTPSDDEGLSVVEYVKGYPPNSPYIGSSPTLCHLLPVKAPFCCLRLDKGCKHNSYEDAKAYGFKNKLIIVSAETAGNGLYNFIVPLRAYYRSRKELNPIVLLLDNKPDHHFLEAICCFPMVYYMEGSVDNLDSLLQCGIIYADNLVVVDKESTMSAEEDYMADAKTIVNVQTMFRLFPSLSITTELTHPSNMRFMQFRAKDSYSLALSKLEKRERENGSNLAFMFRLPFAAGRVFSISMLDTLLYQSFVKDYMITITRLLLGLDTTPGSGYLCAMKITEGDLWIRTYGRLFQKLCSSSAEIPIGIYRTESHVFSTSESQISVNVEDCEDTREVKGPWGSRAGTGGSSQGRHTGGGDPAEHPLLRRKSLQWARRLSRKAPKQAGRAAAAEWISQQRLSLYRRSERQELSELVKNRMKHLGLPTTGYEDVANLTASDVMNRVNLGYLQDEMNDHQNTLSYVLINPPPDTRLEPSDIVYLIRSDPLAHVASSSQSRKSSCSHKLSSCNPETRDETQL
Procedure, shortened: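 Tetracycline-inducible HEK-TREX cells; perforated-patch (10 μM escin) population recordings at room temperature, holding −80 mV with 100 ms step to 0 mV.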

SMILES	IC50 [µM]
CC(NC(=O)c1cc(C(F)(F)F)nn1C)c1nc(-c2cccc(C(=O)O)c2)no1 (centres unmarked) [Compound 182, 3-(5-(1-(1-methyl-3-(trifluoromethyl)-1H-pyrazole-5-carboxamido)ethyl)-1,2,4-oxadiazol-3-yl)benzoic Acid]	≥ 20
COC(=O)NCC(NC(=O)c1cc(C(F)(F)F)nn1C)c1nc(-c2cccc(F)c2)no1 (centres unmarked) [Compound 168]	1 to 20
CNC(=O)C[C@@H](NC(=O)c1cc(C(F)(F)F)nn1C)c1nc(-c2cccc(F)c2)no1 (single isomer, unassigned) [Compound 114]	≥ 20
Cc1cccc(-c2noc(C(C)NC(=O)c3cc(C(F)F)nn3C)n2)c1 (centres unmarked) [Compound 21]	≤ 1
CC(NC(=O)c1cc(C2CC2)nn1C)c1nc(-c2cccc(F)c2)no1 (centres unmarked) [Compound 5]	≤ 1
COC1(c2cc(-c3noc([C@H](C)NC(=O)OC(C)(C)C)n3)ccn2)CC1 [Compound 262, tert-butyl (S)-(1-(3-(2-(1-methoxycyclopropyl)pyridin-4-yl)-1,2,4-oxadiazol-5-yl)ethyl)carbamate]	1 to 20
CC(NC(=O)c1cc(C(F)(F)F)nn1C)c1nc(-c2ccc(Cl)cc2Cl)no1 (centres unmarked) [Compound 75]	≤ 1
COC[C@H](NC(=O)c1cc(C(F)(F)F)nn1C)c1nc(-c2cccc(C)c2)no1 (single isomer, unassigned) [Compound 81]	≤ 1
CC(C)COC(=O)N[C@@H](C)c1nc(-c2ccnc(C3CC3)c2)no1 [Compound 275]	≤ 1
Cn1nc(C(F)(F)F)cc1C(=O)NC(CNC(=O)OCc1ccccc1)c1nc(-c2cccc(F)c2)no1 (centres unmarked) [Compound 157, benzyl N-[2-[3-(3-fluorophenyl)-1,2,4-oxadiazol-5-yl]-2-[[2-methyl-5-(trifluoromethyl)pyrazole-3-carbonyl]amino]ethyl]carbamate]	1 to 20
C[C@@H](NC(=O)c1cc(C2CC2)nn1C)c1nc(-c2cccc(F)c2)no1 (single isomer, unassigned) [Compound 93]	1 to 20
C[C@H](NC(=O)c1cc(C(F)(F)F)nn1Cc1ccccc1)c1nc(-c2ccnc(C(F)(F)F)c2)no1 [Compound 241, (S)-1-benzyl-3-(trifluoromethyl)-N-(1-(3-(2-(trifluoromethyl)pyridin-4-yl)-1,2,4-oxadiazol-5-yl)ethyl)-1H-pyrazole-5-carboxamide]	≤ 1
Cc1nn(C(C)C)cc1C(=O)N[C@@H](C)c1nc(-c2cccc(C(F)(F)F)c2)no1 [Compound 89]	≤ 1
C[C@H](NC(=O)c1cc(C(F)(F)F)nn1C)c1nc(-c2ccnc(COC3CC3)c2)no1 [Compound 254, (S)—N-(1-(3-(2-(cyclopropoxymethyl)pyridin-4-yl)-1,2,4-oxadiazol-5-yl)ethyl)-1-methyl-3-(trifluoromethyl)-1H-pyrazole-5-carboxamide]	1 to 20
COc1cc(-c2noc([C@H](C)NC(=O)OC(C)(C)C)n2)cc(C)n1 [Compound 287, tert-butyl (S)-(1-(3-(2-methoxy-6-methylpyridin-4-yl)-1,2,4-oxadiazol-5-yl)ethyl)carbamate]	≤ 1
Cc1nn(C(C)C)cc1C(=O)NC(C)c1nc(-c2ccc(OC(F)(F)F)cc2)no1 (centres unmarked) [Compound 99]	1 to 20
C[C@H](NC(=O)c1cc(C(F)(F)F)nn1C)c1nc(-c2ccnc(CO)c2)no1 [Compound 258, N-[(1S)-1-[3-[2-(hydroxymethyl)-4-pyridyl]-1,2,4-oxadiazol-5-yl]ethyl]-2-methyl-5-(trifluoromethyl)pyrazole-3-carboxamide]	1 to 20
CCOCc1cc(-c2noc([C@H](C)NC(=O)c3cc(C(F)(F)F)nn3C)n2)ccn1 [Compound 245, (S)—N-(1-(3-(2-(ethoxymethyl)pyridin-4-yl)-1,2,4-oxadiazol-5-yl)ethyl)-1-methyl-3-(trifluoromethyl)-1H-pyrazole-5-carboxamide]	1 to 20
Cn1nc(C(F)(F)F)cc1C(=O)N[C@@H](CCS(C)(=O)=O)c1nc(-c2cccc(F)c2)no1 (single isomer, unassigned) [Compound 144]	1 to 20

SMILES	IC50 [µM]
Cn1nc(C2CC2)cc1C(=O)NC(CO)c1nc(-c2cccc(F)c2)no1 (centres unmarked) [Compound 54]	≥ 20
Cc1nn(C(C)C)cc1C(=O)N[C@@H](C)c1nc(-c2cccc(OC(F)(F)F)c2)no1 [Compound 100]	1 to 20
CC[C@H](NC(=O)c1cc(C(F)(F)F)nn1C(F)F)c1nc(-c2ccnc(C)c2)no1 [Compound 221, (S)-1-(difluoromethyl)-N-(1-(3-(2-methylpyridin-4-yl)-1,2,4-oxadiazol-5-yl)propyl)-3-(trifluoromethyl)-1H-pyrazole-5-carboxamide]	≤ 1
C[C@H](NC(=O)c1cc(C(F)(F)F)nn1Cc1ccncc1)c1nc(-c2ccnc(C(F)(F)F)c2)no1 [Compound 246, (S)-1-(pyridin-4-ylmethyl)-3-(trifluoromethyl)-N-(1-(3-(2-(trifluoromethyl)pyridin-4-yl)-1,2,4-oxadiazol-5-yl)ethyl)-1H-pyrazole-5-carboxamide]	≤ 1
CC[C@H](NC(=O)c1cc(C)nn1C1CCOCC1)c1nc(-c2ccnc(C)c2)no1 [Compound 217, (S)-3-methyl-N-(1-(3-(2-methylpyridin-4-yl)-1,2,4-oxadiazol-5-yl)propyl)-1-(tetrahydro-2H-pyran-4-yl)-1H-pyrazole-5-carboxamide]	1 to 20
CC[C@H](NC(=O)OC(C)(C)C)c1nc(-c2ccnc(C)c2)no1 [Compound 284, tert-butyl (S)-(1-(3-(2-methylpyridin-4-yl)-1,2,4-oxadiazol-5-yl)propyl)carbamate]	1 to 20
C[C@H](NC(=O)c1cn(C)nc1C(C)(C)C)c1nc(-c2cccc(F)c2)no1 [Compound 162]	1 to 20
CC(NC(=O)c1cc(C2CC2)nn1C)c1nc(-c2ccc(F)cc2)no1 (centres unmarked) [Compound 8]	1 to 20
Cc1nn(CC(F)F)cc1C(=O)N[C@@H](C)c1nc(-c2cccc(F)c2)no1 [Compound 163]	1 to 20
Cc1nn(C(C)C)cc1C(=O)N[C@@H](C)c1nc(-c2ccc(F)cc2)no1 [Compound 90]	1 to 20
Cc1nn(C(C)C)cc1C(=O)NC(C)c1nc(-c2cccc(Cl)c2)no1 (centres unmarked) [Compound 96]	≤ 1
C[C@H](NC(=O)c1ccn(Cc2ccccc2)n1)c1nc(-c2ccnc(C3CC3)c2)no1 [Compound 306, 1-benzyl-N-[(1S)-1-[3-(2-cyclopropyl-4-pyridyl)-1,2,4-oxadiazol-5-yl]ethyl]pyrazole-3-carboxamide]	≤ 1
COCCn1nc(C(F)(F)F)cc1C(=O)N[C@@H](C)c1nc(-c2ccnc(C(F)(F)F)c2)no1 [Compound 239, (S)-1-(2-methoxyethyl)-3-(trifluoromethyl)-N-(1-(3-(2-(trifluoromethyl)pyridin-4-yl)-1,2,4-oxadiazol-5-yl)ethyl)-1H-pyrazole-5-carboxamide]	≤ 1
CC(NC(=O)c1cc(C(F)(F)F)nn1C)c1nc(-c2cccc(CC#N)c2)no1 (centres unmarked) [Compound 178, N-(1-(3-(3-(cyanomethyl)phenyl)-1,2,4-oxadiazol-5-yl)ethyl)-1-methyl-3-(trifluoromethyl)-1H-pyrazole-5-carboxamide]	1 to 20
CC(NC(=O)c1cc(C(F)(F)F)nn1C(F)F)c1nc(-c2cccc(Cl)c2)no1 (centres unmarked) [Compound 73]	≤ 1
C[C@H](NC(=O)OC(C)(C)C)c1nc(-c2ccnc(C(F)(F)F)c2)no1 [Compound 295, tert-butyl (S)-(1-(3-(2-(trifluoromethyl)pyridin-4-yl)-1,2,4-oxadiazol-5-yl)ethyl)carbamate]	≤ 1
CC[C@H](NC(=O)c1cc(C)nn1-c1cccnc1)c1nc(-c2ccnc(C)c2)no1 [Compound 231, (S)-3-methyl-N-(1-(3-(2-methylpyridin-4-yl)-1,2,4-oxadiazol-5-yl)propyl)-1-(pyridin-3-yl)-1H-pyrazole-5-carboxamide]	1 to 20
C[C@H](NC(=O)c1cn(CC(F)(F)F)nc1C1CC1)c1nc(-c2cccc(F)c2)no1 [Compound 151]	1 to 20
C[C@H](NC(=O)c1cc(C(F)(F)F)nn1C)c1nc(-c2ccnc(C3CCC3)c2)no1 (single isomer, unassigned) [Compound 278]	≤ 1
